In PubChem BioAssay AID248 (DTP/NCI, 2004):
“And” between values parts separate entries of the source, which are not always exact repeats. Equal values may be shown once. Toxic doses and inconclusive results are not listed. Cut-off read from the data, not from the text of the source: active = T/C of 150% or more; inactive = T/C below 125%. Peptide text beside a SMILES is read from it. * marks the point of attachment. Cbz = O=C(OCc1ccccc1)*

Tested on: L1210 leukemia ip in BDF1 mice, survival T/C
Test: NCI In Vivo Anticancer Drug Screen. Data for tumor model L1210 Leukemia (intraperitoneal) in B6D2F1 (BDF1) mice
Settings: endpoint: mean survival time, higher = longer survival
Procedure, shortened: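 Survival endpoint. Drug-treated group vs vehicle group, expressed as T divided by C. Tumor passaged by transplantation.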

[1] = dose: 75.0 mg/kg/injection, schedule: Q01DX001 (ip), vehicle: saline
[2] = dose: 100.0 mg/kg/injection, schedule: Q01DX009 (ip), vehicle: saline with Tween-80
[3] = dose: 200.0 mg/kg/injection, schedule: Q01DX009 (ip), vehicle: saline with Tween-80
[4] = dose: 400.0 mg/kg/injection, schedule: Q01DX009 (ip), vehicle: saline with Tween-80
[5] = dose: 25.0 mg/kg/injection, schedule: Q01DX009 (ip), vehicle: saline with Tween-80
[6] = dose: 50.0 mg/kg/injection, schedule: Q01DX009 (ip), vehicle: saline with Tween-80
[7] = dose: 100.0 mg/kg/injection, schedule: Q01DX009 (ip), vehicle: Klucel (hydroxypropylcellulose) (HPC)
[8] = dose: 200.0 mg/kg/injection, schedule: Q01DX009 (ip), vehicle: Klucel (hydroxypropylcellulose) (HPC)
[9] = dose: 100.0 mg/kg/injection, schedule: Q01DX001 (ip), vehicle: carboxymethylcellulose (CMC)
[10] = dose: 200.0 mg/kg/injection, schedule: Q01DX001 (ip), vehicle: carboxymethylcellulose (CMC)
[11] = dose: 400.0 mg/kg/injection, schedule: Q01DX001 (ip), vehicle: carboxymethylcellulose (CMC)
[12] = dose: 100.0 mg/kg/injection, schedule: Q04DX003 (ip), vehicle: saline with Tween-80
[13] = dose: 200.0 mg/kg/injection, schedule: Q04DX003 (ip), vehicle: saline with Tween-80
[14] = dose: 400.0 mg/kg/injection, schedule: Q04DX003 (ip), vehicle: saline with Tween-80

Measured: T/C

CCOC(=O)c1ccc2ccccc2[n+]1C
inactive: [1] 89 % of control | dose: 150.0 mg/kg/injection, schedule: Q01DX001 (ip), vehicle: saline 94 % of control | dose: 300.0 mg/kg/injection, schedule: Q01DX001 (ip), vehicle: saline 91 % of control

O=C(CCl)N(O)c1ccccc1OCc1ccccc1
inactive: dose: 100.0 mg/kg/injection, schedule: Q04DX003 (ip), vehicle: carboxymethylcellulose (CMC) 91 % of control | dose: 200.0 mg/kg/injection, schedule: Q04DX003 (ip), vehicle: carboxymethylcellulose (CMC) 102 % of control

Cc1cc(C)c(N(CC(=O)O)S(=O)(=O)c2ccccc2)c(C)c1N(CC(=O)O)S(=O)(=O)c1ccccc1
inactive: [2] 101 % of control | [3] 98 % of control | [4] 97 % of control

CCCCCCCCCCCCCCCC[N+](C)(CCO)Cc1ccccc1 (stereo not given)
inactive: dose: 12.5 mg/kg/injection, schedule: Q04DX002 (ip), vehicle: saline with Tween-80 93 % of control

CC(NC(=O)C(C)NC(=O)OCc1ccccc1)C(N)=O (stereo not drawn) (Cbz-Ala-Ala-NH2; configuration not given here)
inactive: [2] 88 % of control | [3] 88 % of control | [4] 88 % of control

CCOCc1c(COc2ccc(Br)cc2)n(C)c2ccccc12
inactive: [5] 100 % of control | [6] 89 % of control and 90 % of control | [2] 90 % of control | [3] 99 % of control

Nc1c(Br)cc(Br)c(C(=O)O)c1Br
inactive: dose: 50.0 mg/kg/injection, schedule: Q01DX009 (ip), vehicle: Klucel (hydroxypropylcellulose) (HPC) 103 % of control | [7] 101 % of control | [8] 95 % of control

COc1cc(CC(=O)O)c([N+](=O)[O-])cc1OC
inactive: [9] 97 % of control | [7] 114 % of control | [10] 110 % of control | [8] 103 % of control | [11] 110 % of control | dose: 400.0 mg/kg/injection, schedule: Q01DX009 (ip), vehicle: Klucel (hydroxypropylcellulose) (HPC) 101 % of control

Br[SiH](Br)Br
inactive: dose: 25.6 mg/kg/injection, schedule: Q04DX002 (ip), vehicle: saline with Tween-80 93 % of control | dose: 64.0 mg/kg/injection, schedule: Q04DX002 (ip), vehicle: saline with Tween-80 93 % of control | [12] 101 % of control | dose: 160.0 mg/kg/injection, schedule: Q04DX002 (ip), vehicle: saline with Tween-80 90 % of control | [13] 92 % of control | dose: 400.0 mg/kg/injection, schedule: Q04DX002 (ip), vehicle: saline with Tween-80 97 % of control | [14] 92 % of control

COC(=O)c1ccc(OC(C)OCCCl)cc1 (stereo not given)
inactive: dose: 100.0 mg/kg/injection, schedule: Q04DX002 (ip), vehicle: saline 93 % of control | dose: 200.0 mg/kg/injection, schedule: Q04DX002 (ip), vehicle: saline 96 % of control | dose: 400.0 mg/kg/injection, schedule: Q04DX002 (ip), vehicle: saline 96 % of control

CCOC(=O)CCN(CC)C(C)=O
inactive: dose: 100.0 mg/kg/injection, schedule: Q01DX009 (ip), vehicle: saline 93 % of control | dose: 100.0 mg/kg/injection, schedule: Q04DX003 (ip), vehicle: saline sonified 101 % of control | dose: 200.0 mg/kg/injection, schedule: Q01DX009 (ip), vehicle: saline 93 % of control | dose: 200.0 mg/kg/injection, schedule: Q04DX003 (ip), vehicle: saline sonified 95 % of control | dose: 400.0 mg/kg/injection, schedule: Q01DX009 (ip), vehicle: saline 93 % of control | dose: 400.0 mg/kg/injection, schedule: Q04DX003 (ip), vehicle: saline sonified 95 % of control

CCc1nc(=S)c2[nH]cnc2[nH]1
inactive: [12] 93 % of control | [13] 90 % of control | [14] 93 % of control

CC(C)c1nc2c(=O)[nH]cnc2o1
inactive: dose: 25.0 mg/kg/injection, schedule: Q01DX005 (ip), vehicle: saline 105 % of control | dose: 50.0 mg/kg/injection, schedule: Q01DX005 (ip), vehicle: saline 107 % of control | dose: 100.0 mg/kg/injection, schedule: Q01DX005 (ip), vehicle: saline 95 % of control and 102 % of control | dose: 200.0 mg/kg/injection, schedule: Q01DX005 (ip), vehicle: saline 100 % of control

COc1ccc(-c2ccccc2)cc1S
inactive: dose: 50.0 mg/kg/injection, schedule: Q01DX001 (ip), vehicle: carboxymethylcellulose (CMC) 95 % of control | [9] 98 % of control | [10] 93 % of control | [11] 98 % of control

NS(=O)(=O)c1ccc(Cc2[nH]c(=O)[nH]c(=O)c2Br)cc1
inactive: dose: 25.0 mg/kg/injection, schedule: Q01DX001 (ip), vehicle: saline 101 % of control | dose: 50.0 mg/kg/injection, schedule: Q01DX001 (ip), vehicle: saline 95 % of control | dose: 100.0 mg/kg/injection, schedule: Q01DX001 (ip), vehicle: saline 101 % of control

C/C(CC(O)(C(F)(F)Cl)C(F)(F)Cl)=N\O
inactive: [2] 92 % of control | [12] 107 % of control | [3] 97 % of control | [13] 93 % of control | [14] 93 % of control

FC(F)(F)c1cccc(N2N=NC3CC/C(=C\c4ccccc4)C32N2CCOCC2)c1 (stereo not given)
inactive: dose: 100.0 mg/kg/injection, schedule: Q04DX002 (ip), vehicle: Klucel (hydroxypropylcellulose) (HPC) 97 % of control | dose: 200.0 mg/kg/injection, schedule: Q04DX002 (ip), vehicle: Klucel (hydroxypropylcellulose) (HPC) 90 % of control | dose: 400.0 mg/kg/injection, schedule: Q04DX002 (ip), vehicle: Klucel (hydroxypropylcellulose) (HPC) 93 % of control

O=C1C(OCc2ccccc2)=C(OCc2ccccc2)C(=O)c2ccccc21
inactive: dose: 75.0 mg/kg/injection, schedule: Q01DX001 (ip), vehicle: acetone 91 % of control | dose: 150.0 mg/kg/injection, schedule: Q01DX001 (ip), vehicle: acetone 94 % of control | dose: 300.0 mg/kg/injection, schedule: Q01DX001 (ip), vehicle: acetone 90 % of control

CC1CCC2(O)C(O)CCCC2(C)C1C (stereo not given)
inactive: [6] 92 % of control | [2] 89 % of control | [3] 92 % of control

CCCCCOC(=O)CN(CC(=O)OCCCCC)c1ccc(C=O)cc1
inactive: [12] 103 % of control | [13] 100 % of control | [14] 92 % of control

O=C(Nc1ccc(Cl)cc1)c1cc([N+](=O)[O-])ccc1O
inactive: dose: 30.5 mg/kg/injection, schedule: Q02DX010 (ip), vehicle: carboxymethylcellulose (CMC) 95 % of control | dose: 61.0 mg/kg/injection, schedule: Q02DX010 (ip), vehicle: carboxymethylcellulose (CMC) 101 % of control | dose: 122.0 mg/kg/injection, schedule: Q02DX010 (ip), vehicle: carboxymethylcellulose (CMC) 99 % of control | dose: 244.0 mg/kg/injection, schedule: Q02DX010 (ip), vehicle: carboxymethylcellulose (CMC) 94 % of control

CCOC(=O)c1cnc(SC)nc1Nc1cc(Cl)cc(Cl)c1
inactive: [12] 89 % of control | [13] 87 % of control | [14] 91 % of control

O=[N+]([O-])/C=C/c1ccccc1Cl
inactive: dose: 5.0 mg/kg/injection, schedule: Q01DX009 (ip), vehicle: other 98 % of control | dose: 6.25 mg/kg/injection, schedule: Q01DX009 (ip), vehicle: saline with Tween-80 100 % of control | dose: 10.0 mg/kg/injection, schedule: Q01DX009 (ip), vehicle: other 110 % of control | dose: 12.5 mg/kg/injection, schedule: Q01DX009 (ip), vehicle: saline with Tween-80 95 % of control | dose: 15.0 mg/kg/injection, schedule: Q04DX003 (ip), vehicle: other 114 % of control | dose: 20.0 mg/kg/injection, schedule: Q01DX009 (ip), vehicle: other 100 % of control | [5] 101 % of control | dose: 30.0 mg/kg/injection, schedule: Q04DX003 (ip), vehicle: other 104 % of control | dose: 37.5 mg/kg/injection, schedule: Q01DX009 (sc), vehicle: olive oil, sesame oil, peanut oil 94 % of control | dose: 37.5 mg/kg/injection, schedule: Q04DX003 (ip), vehicle: Klucel (hydroxypropylcellulose) (HPC) 101 % of control | [6] 96 % of control | dose: 60.0 mg/kg/injection, schedule: Q04DX003 (ip), vehicle: other 108 % of control | [1] 92 % of control | dose: 75.0 mg/kg/injection, schedule: Q01DX009 (sc), vehicle: olive oil, sesame oil, peanut oil 94 % of control | dose: 75.0 mg/kg/injection, schedule: Q04DX003 (ip), vehicle: Klucel (hydroxypropylcellulose) (HPC) 90 % of control | dose: 150.0 mg/kg/injection, schedule: Q04DX003 (ip), vehicle: Klucel (hydroxypropylcellulose) (HPC) 90 % of control
